In patent US20230141101A1, “PDE4 INHIBITOR COMPOUND AND MEDICAL USE THEREOF” (Suzhou Longbotai Pharmaceuticals Co., Ltd., priority 2020, published 2023):

What was measured:
Assay type in all cases: biochemical
[1] = target: T1, PDE4A1A (Homo sapiens, UniProt P27815); experiment: PDE4 inhibitory activity assay (FAM-cAMP enzymatic reaction), PDE4A1A; conditions: for inhibitory activity against PDE4A1A compared with Apremilast and WX011: compared with Apremilast and Example 11 of WO2018036470 (WX011)
T1 construct: purchased BPS 60040
T1 sequence (P27815 1-647 isoform P27815-4): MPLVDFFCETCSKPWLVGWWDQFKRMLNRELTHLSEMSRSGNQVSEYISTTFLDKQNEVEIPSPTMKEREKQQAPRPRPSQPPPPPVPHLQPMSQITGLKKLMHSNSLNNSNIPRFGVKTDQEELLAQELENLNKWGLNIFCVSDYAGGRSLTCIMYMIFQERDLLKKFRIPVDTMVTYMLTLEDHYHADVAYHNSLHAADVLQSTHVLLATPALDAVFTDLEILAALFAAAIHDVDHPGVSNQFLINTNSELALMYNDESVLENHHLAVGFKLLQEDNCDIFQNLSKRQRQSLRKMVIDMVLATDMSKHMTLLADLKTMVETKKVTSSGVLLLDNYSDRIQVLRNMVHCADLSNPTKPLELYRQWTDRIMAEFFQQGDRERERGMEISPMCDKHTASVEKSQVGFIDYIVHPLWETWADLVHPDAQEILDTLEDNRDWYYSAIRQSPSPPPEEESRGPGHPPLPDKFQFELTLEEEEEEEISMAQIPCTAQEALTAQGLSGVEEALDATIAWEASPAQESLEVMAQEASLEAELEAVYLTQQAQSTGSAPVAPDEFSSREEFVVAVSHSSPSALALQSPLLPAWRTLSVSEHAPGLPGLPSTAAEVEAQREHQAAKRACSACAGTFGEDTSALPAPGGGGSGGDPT
Procedure: (§1) The compounds of the present disclosure were tested for their inhibitory activity (IC50 value) against PDE4A1A, PDE4B1, and PDE4D2.
(§2) Positive compound: Trequinsin (Sigma, Cat No. T20S7).
(§3) Instrument: Wallac Victor Muti-lable counter (Pekin Elmer) Steps of assay:
(§4) PDE enzymatic reaction; • 1) PDE was dissolved in 1× reaction solution to prepare 2× enzyme solution; • 2) FAM-cAMP was dissolved in 1× reaction solution to prepare 2× substrate solution; • 3) Corresponding volume of the compound in DMSO was transferred to the reaction plate through Echo 550; • 4) 2× enzyme solution was added into the corresponding wells of the reaction plate and incubated with the compound solution for 15 minutes at room temperature; • 5) 2× substrate solution was added into the corresponding well of the reaction plate to initiate the reaction; • 6) After the reaction plate was incubated at room temperature for 30 min, the reaction was terminated by adding reaction stopping solution. The reaction plate was incubated at room temperature for another 60 minutes;
(§5) Inhibition rates were calculated with Excel; and IC50 for each compound was calculated with Graphpad prism.

[2] = target: PDE4D2 (Homo sapiens, UniProt Q08499); experiment: PDE4 inhibitory activity assay (FAM-cAMP enzymatic reaction), PDE4D2; conditions: for inhibitory activity against PDE4D2 compared with Apremilast and WX011: compared with Apremilast and Example 11 of WO2018036470 (WX011); for IC50: read-out: PDE4 D2 inhibitory activity (IC50 value)
Chain of PDE4D2 (Q08499 303-809): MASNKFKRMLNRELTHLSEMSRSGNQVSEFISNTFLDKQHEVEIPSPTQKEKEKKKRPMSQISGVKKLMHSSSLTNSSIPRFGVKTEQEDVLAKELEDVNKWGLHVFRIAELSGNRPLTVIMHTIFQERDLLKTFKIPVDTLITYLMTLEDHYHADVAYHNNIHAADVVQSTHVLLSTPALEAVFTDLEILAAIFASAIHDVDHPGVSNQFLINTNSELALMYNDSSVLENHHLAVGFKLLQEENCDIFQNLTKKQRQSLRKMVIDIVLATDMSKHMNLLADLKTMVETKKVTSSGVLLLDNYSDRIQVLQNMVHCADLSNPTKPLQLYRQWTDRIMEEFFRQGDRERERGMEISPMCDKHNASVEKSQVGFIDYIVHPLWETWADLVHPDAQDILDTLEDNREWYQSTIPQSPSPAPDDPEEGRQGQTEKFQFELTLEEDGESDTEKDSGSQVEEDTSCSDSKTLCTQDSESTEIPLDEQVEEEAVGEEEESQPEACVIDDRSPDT
Procedure: as §1, §2, §3, §4, §5

[3] = target: T2, PDE4B1 (Homo sapiens, UniProt Q07343); experiment: PDE4 inhibitory activity assay (FAM-cAMP enzymatic reaction), PDE4B1; conditions: for inhibitory activity against PDE4B1 compared with Apremilast and WX011: compared with Apremilast and Example 11 of WO2018036470 (WX011)
T2 construct: purchased BPS 60041
T2 sequence (Q07343 whole entry): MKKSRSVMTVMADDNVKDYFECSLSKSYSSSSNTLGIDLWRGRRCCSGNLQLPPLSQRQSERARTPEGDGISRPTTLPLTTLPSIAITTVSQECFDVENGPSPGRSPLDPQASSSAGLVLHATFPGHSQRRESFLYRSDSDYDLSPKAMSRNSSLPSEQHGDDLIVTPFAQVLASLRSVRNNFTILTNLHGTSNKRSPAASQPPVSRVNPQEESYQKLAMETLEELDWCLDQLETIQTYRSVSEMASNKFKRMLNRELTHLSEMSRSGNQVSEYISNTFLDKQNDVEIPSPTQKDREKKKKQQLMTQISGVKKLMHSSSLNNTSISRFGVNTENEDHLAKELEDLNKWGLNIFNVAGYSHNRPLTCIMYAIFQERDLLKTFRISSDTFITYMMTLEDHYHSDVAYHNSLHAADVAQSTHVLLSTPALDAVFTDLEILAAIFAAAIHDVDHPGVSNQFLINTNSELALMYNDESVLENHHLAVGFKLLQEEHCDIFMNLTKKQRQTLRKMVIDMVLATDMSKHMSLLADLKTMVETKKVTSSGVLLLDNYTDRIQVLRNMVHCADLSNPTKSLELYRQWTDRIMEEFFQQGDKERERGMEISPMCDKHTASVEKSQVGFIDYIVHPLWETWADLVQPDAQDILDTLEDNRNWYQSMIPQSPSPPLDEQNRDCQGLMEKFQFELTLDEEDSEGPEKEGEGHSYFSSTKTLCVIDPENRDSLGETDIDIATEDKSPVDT
Procedure: as §1, §2, §3, §4, §5

Row | IC50 [2] [nM] | PDE4 A1 inhibitory effect at 20 nM [1] | PDE4 B1 inhibitory effect at 20 nM [3] | PDE4 D2 inhibitory effect at 20 nM [2] | SMILES | further results
1 |  | − | − | − | CCOc1nc([C@H](CS(C)(=O)=O)n2c(=O)[nH]c3c(C)c(-c4ccccc4)cnc32)ccc1OC [Ex. 5, (R)-3-(1-(6-ethoxy-5-methoxypyridin-2-yl)-2-(methylsulfonyl)ethyl)-7-methyl-6-phenyl-1H-imidazo[4,5-b]pyridin-2(3H)-one] | 
2 | 318 |  |  |  | CCOc1nc([C@H](CS(C)(=O)=O)n2c(=O)[nH]c3c(C)c(-c4ccccc4C)cnc32)ccc1OC [Ex. 9, (R)-3-(1-(6-ethoxy-5-methoxypyridin-2-yl)-2-(methylsulfonyl)ethyl)-7-methyl-6-(o-methylphenyl)-1H-imidazo[4,5b]pyridin-2(3H)-one] | 
3 | 2.8 |  |  |  | CCOc1nc([C@@H](CS(C)(=O)=O)n2c(=O)[nH]c3c(C)c(-c4ccccc4CC)cnc32)ccc1OC [Ex. 10, (S)-3-(1-(6-ethoxy-5-methoxypyridin-2-yl)-2-(methylsulfonyl)ethyl)-6-(2-ethylphenyl)-7-methyl-1H-imidazo[4,5-b]pyridin-2(3H)-one] | inhibitory activity against PDE4A1A compared with Apremilast and WX011 [1]: significantly enhanced inhibitory activity; inhibitory activity against PDE4B1 compared with Apremilast and WX011 [3]: significantly enhanced inhibitory activity; inhibitory activity against PDE4D2 compared with Apremilast and WX011 [2]: significantly enhanced inhibitory activity
4 |  | + | + | + | CCOc1nc([C@@H](CS(C)(=O)=O)n2c(=O)[nH]c3c(C)c(-c4ccccc4C(C)C)cnc32)ccc1OC [Ex. 11, (S)-3-(1-(6-ethoxy-5-methoxypyridin-2-yl)-2-(methylsulfonyl)ethyl)-6-(2-isopropylphenyl)-7-methyl-1H-imidazo[4,5-b]pyridin-2(3H)-one] | 
5 | 396 |  |  |  | CCOc1nc([C@H](CS(C)(=O)=O)n2c(=O)[nH]c3c(C)c(-c4ccccc4OC)cnc32)ccc1OC [Ex. 13, (R)-3-(1-(6-ethoxy-5-methoxypyridin-2-yl)-2-(methylsulfonyl)ethyl)-6-(2-methoxyphenyl)-7-methyl-1H-imidazo[4,5-b]pyridin-2(3H)-one] | 
6 |  | + | + | = | CCOc1nc([C@@H](CS(C)(=O)=O)n2c(=O)[nH]c3c(C)c(-c4ccccc4C(F)(F)F)cnc32)ccc1OC [Ex. 14, (S)-3-(1-(6-ethoxy-5-methoxypyridin-2-yl)-2-(methylsulfonyl)ethyl)-7-methyl-6-(2-(trifluoromethyl)phenyl)-1H-imidazo[4,5-b]pyridin-2(3H)-one] | 
7 |  | + | + | = | CCOc1nc([C@@H](CS(C)(=O)=O)n2c(=O)[nH]c3c(C)c(-c4ccccn4)cnc32)ccc1OC [Ex. 17, (S)-3-(1-(6-ethoxy-5-methoxypyridin-2-yl)-2-(methylsulfonyl)ethyl)-7-methyl-6-(pyridin-2-yl)-1H-imidazo[4,5-b]pyridin-2(3H)-one] | 
8 | 4.1 |  |  |  | CCOc1nc([C@@H](CS(C)(=O)=O)n2c(=O)[nH]c3c(C)c(-c4ccc(C)cc4C)cnc32)ccc1OC [Ex. 31, (S)-6-(2,4-dimethylphenyl)-3-(1-(6-ethoxy-5-methoxypyridin-2-yl)-2-(methylsulfonyl)ethyl)-7-methyl-1H-imidazo[4,5-b]pyridin-2(3H)-one] | 
9 | 4.7 |  |  |  | CCOc1nc([C@@H](CS(C)(=O)=O)n2c(=O)[nH]c3cc(-c4ccccc4C)cnc32)ccc1OC [Ex. 79, (S)-3-(1-(6-ethoxy-5-methoxypyridin-2-yl)-2-(methylsulfonyl)ethyl)-6-(o-methylphenyl)-1H-imidazo[4,5-b]pyridin-2(3H)-one] | 

More lines, now with the values behind:

Row | SMILES | IC50 [2] [nM] | PDE4 A1 inhibitory effect at 20 nM [1] | PDE4 B1 inhibitory effect at 20 nM [3] | PDE4 D2 inhibitory effect at 20 nM [2] | further results
10 | CCOc1nc([C@@H](CS(C)(=O)=O)n2c(=O)[nH]c3c(C)c(-c4ccccc4F)cnc32)ccc1OC [Ex. 2, (S)-3-(1-(6-ethoxy-5-methoxypyridin-2-yl)-2-(methylsulfonyl)ethyl)-6-(2-fluorophenyl)-7-methyl-1H-imidazo[4,5-b]pyridin-2(3H)-one] | 3.4 |  |  |  | inhibitory activity against PDE4A1A compared with Apremilast and WX011 [1]: significantly enhanced inhibitory activity; inhibitory activity against PDE4D2 compared with Apremilast and WX011 [2]: significantly enhanced inhibitory activity
11 | CCOc1nc([C@H](CS(C)(=O)=O)n2c(=O)[nH]c3c(C)c(-c4ccccc4F)cnc32)ccc1OC [Ex. 3, (R)-3-(1-(6-ethoxy-5-methoxypyridin-2-yl)-2-(methylsulfonyl)ethyl)-6-(2-fluorophenyl)-7-methyl-1H-imidazo[4,5-b]pyridin-2(3H)-one] | 415 |  |  |  | 
12 | CCOc1nc([C@@H](CS(C)(=O)=O)n2c(=O)[nH]c3c(C)c(-c4ccccc4)cnc32)ccc1OC [Ex. 4, (S)-3-(1-(6-ethoxy-5-methoxypyridin-2-yl)-2-(methylsulfonyl)ethyl)-7-methyl-6-phenyl-1H-imidazo[4,5-b]pyridin-2(3H)-one] | 8.5 |  |  |  | 
13 | CCOc1nc([C@@H](CS(C)(=O)=O)n2c(=O)[nH]c3c(C)c(-c4ccc(F)cc4)cnc32)ccc1OC [Ex. 6, (S)-3-(1-(6-ethoxy-5-methoxypyridin-2-yl)-2-(methylsulfonyl)ethyl)-6-(4-fluorophenyl)-7-methyl-1H-imidazo[4,5-b]pyridin-2(3H)-one] |  | + | + | = | 
14 | CCOc1nc([C@H](CS(C)(=O)=O)n2c(=O)[nH]c3c(C)c(-c4ccc(F)cc4)cnc32)ccc1OC [Ex. 7, (R)-3-(1-(6-ethoxy-5-methoxypyridin-2-yl)-2-(methylsulfonyl)ethyl)-6-(4-fluorophenyl)-7-methyl-1H-imidazo[4,5-b]pyridin-2(3H)-one] |  | − | − | − | 
15 | CCOc1nc([C@@H](CS(C)(=O)=O)n2c(=O)[nH]c3c(C)c(-c4ccccc4C)cnc32)ccc1OC [Ex. 8, (S)-3-(1-(6-ethoxy-5-methoxypyridin-2-yl)-2-(methylsulfonyl)ethyl)-7-methyl-6-(o-methylphenyl)-1H-imidazo[4,5-b]pyridin-2(3H)-one] | 3.8 |  |  |  | inhibitory activity against PDE4A1A compared with Apremilast and WX011 [1]: significantly enhanced inhibitory activity; inhibitory activity against PDE4B1 compared with Apremilast and WX011 [3]: significantly enhanced inhibitory activity; inhibitory activity against PDE4D2 compared with Apremilast and WX011 [2]: significantly enhanced inhibitory activity
16 | CCOc1nc([C@@H](CS(C)(=O)=O)n2c(=O)[nH]c3c(C)c(-c4ccccc4OC)cnc32)ccc1OC [Ex. 12, (S)-3-(1-(6-ethoxy-5-methoxypyridin-2-yl)-2-(methylsulfonyl)ethyl)-6-(2-methoxyphenyl)-7-methyl-1H-imidazo[4,5-b]pyridin-2(3H)-one] | 3.2 |  |  |  | inhibitory activity against PDE4A1A compared with Apremilast and WX011 [1]: significantly enhanced inhibitory activity; inhibitory activity against PDE4B1 compared with Apremilast and WX011 [3]: significantly enhanced inhibitory activity; inhibitory activity against PDE4D2 compared with Apremilast and WX011 [2]: significantly enhanced inhibitory activity
17 | CCOc1nc([C@@H](CS(C)(=O)=O)n2c(=O)[nH]c3c(C)c(-c4ccccc4C#N)cnc32)ccc1OC [Ex. 15, (S)-2-(3-(1-(6-ethoxy-5-methoxypyridin-2-yl)-2-(methylsulfonyl)ethyl)-7-methyl-2-oxo-2,3-dihydro-1H-imidazo[4,5-b]pyridin-6-yl)benzonitrile] |  | − | − | − | 
18 | CCOc1nc([C@H](CS(C)(=O)=O)n2c(=O)[nH]c3c(C)c(-c4ccccc4C#N)cnc32)ccc1OC [Ex. 16, (R)-2-(3-(1-(6-ethoxy-5-methoxypyridin-2-yl)-2-(methylsulfonyl)ethyl)-7-methyl-2-oxo-2,3-dihydro-1H-imidazo[4,5-b]pyridin-6-yl)benzonitrile] |  | − | − | − | 
19 | CCOc1nc([C@H](CS(C)(=O)=O)n2c(=O)[nH]c3c(C)c(-c4ccccn4)cnc32)ccc1OC [Ex. 18, (R)-3-(1-(6-ethoxy-5-methoxypyridin-2-yl)-2-(methylsulfonyl)ethyl)-7-methyl-6-(pyridin-2-yl)-1H-imidazo[4,5-b]pyridin-2(3H)-one] |  | − | − | − | 
20 | CCOc1nc([C@@H](CS(C)(=O)=O)n2c(=O)[nH]c3c(C)c(-c4cc(F)ccc4F)cnc32)ccc1OC [Ex. 27, (S)-6-(2,5-difluorophenyl)-3-(1-(6-ethoxy-5-methoxypyridin-2-yl)-2-(methylsulfonyl)ethyl)-7-methyl-1H-imidazo[4,5-b]pyridin-2(3H)-one] | 3.7 |  |  |  | 
21 | CCOc1nc([C@@H](CS(C)(=O)=O)n2c(=O)[nH]c3c(C)c(-c4ccc(F)cc4C)cnc32)ccc1OC [Ex. 35, (S)-6-(4-fluoro-2-methylphenyl)-3-(1-(6-ethoxy-5-methoxypyridin-2-yl)-2-(methylsulfonyl)ethyl)-7-methyl-1H-imidazo[4,5-b]pyridin-2(3H)-one] | 3.4 |  |  |  | 
22 | CCOc1nc([C@@H](CS(C)(=O)=O)n2c(=O)n(C)c3cc(-c4ccccc4C)cnc32)ccc1OC [Ex. 80, (S)-3-(1-(6-ethoxy-5-methoxypyridin-2-yl)-2-(methylsulfonyl)ethyl)-1-methyl-6-(o-methylphenyl)-1H-imidazo[4,5-b]pyridin-2(3H)-one] | 6.8 |  |  |  | 
